Data reported in patent publication US5371081A, “N-substituted phenoxazines for treating multidrug resistant cancer cells” (St. Jude Children's Research Hospital, priority 1993, dated 1994).
Like-named read-outs stand apart in the source and are kept apart here.

Legend:
KB Ch^R -8-5 Cells [1] = test: Vinca (VCR, VLB) accumulation, anti-MDR activity; assay type: cell-based; conditions: Homo sapiens, compound 100 μM, 2 h, room temperature, mean of two experiments, SD <10%
Protocol: The resistance of the KBCh®-8-5 cells was maintained by culturing them with colchicine (10 ng/ml).
Then, 2 mL of cell suspensions (2×10^6) were plated in 35×10 mm style "easy grip" culture dishes (Becton Dickinson Co., Lincoln Park, N.J.). Cells were allowed to attach to plastic overnight at 37° C. Medium was aspirated and cells were washed with (2×2 mL) physiologic tris (PT) buffer. […] VCR (sp.act. 7.1 ci/mmol) or 49.5 nm [^3 H] […] After 2 h of incubation at room temperature, medium was rapidly aspirated to terminate drug accumulation, and monolayers were washed four times with ice-cold PBS (g/L: NaCL 8.0; Na2 HPO4.12H2 O, 2.9; KCl 0.2; KH2 PO4, 0.2) and drained. To each dish, 1 ml of trypsin-EDTA (0.05% trypsin, 0.53 mM EDTA) was added. After 1 minute, monolayers were triturated to give a uniform suspension of cells, and radioactivity in 0.75 ml was determined by scintillation counting. Cell number per dish was determined on 200 μl of suspension using the method of Butler, and amounts of intracellular VCR or VLB were determined.

GC3 /Cl Cells [2] = test: Vinca (VCR, VLB) accumulation, anti-MDR activity; assay type: cell-based; conditions: Homo sapiens, compound 100 μM, 2 h, room temperature, mean of two experiments, SD <10%
GC3 /CL [3] = test: Cytotoxicity of N-substituted phenoxazines to tumor cells (clonogenic survival); assay type: cell-based; conditions: Homo sapiens, 168 h, 7 days, 37° C., read-out: IC50 (50% reduction in clonogenic survival)
Protocol: (§1) The KBCh®-8-5 cells were plated in triplicate at a density of 1000 cells per well and GC3 at 3000 cells per well in Falcon 6-well flat-bottom tissue culture plates (Becton Dickinson Co., Lincoln Park, N.J.). After 24 h, incubation medium was replaced with 3 mL of fresh medium containing compounds 1-4 or 10-14 or 18 at concentrations ranging from 1-100 μm (final culture concentration, 0.1% DMSO), and cells were incubated at 37° C. for a further 7 days. The medium was aspirated and cells were washed once with 2 mL of 0.9% saline and dried overnight. Colonies were stained with 1 mL of 0.1% crystal violet followed by washing twice with distilled water and were counted using an automated ARTEK Model 880 colony counter. The IC50 values were determined from concentration-percent-cell-survival curves and were defined as the concentrations of phenoxazines required for 50% reduction in colonies compared to controls.
(§2) ^a IC50 is the concentration required to produce 50% reduction i
(§3) clonogenic survivial of GC3 /Cl and KBCH^R -85 cells under the
(§4) conditions described in Example 23.

KBCh^R -8-5 = test: as above; assay type: cell-based; conditions: Homo sapiens, 168 h, 7 days, 37° C., read-out: IC50 (50% reduction in clonogenic survival)
Protocol: as §1, §2, §3, §4

MDR GC3 /Cl cells = conditions: compared with verapamil; cited from earlier work
KBCh®-8-5 cells = conditions: compared with verapamil; cited from earlier work
MDR = conditions: in model systems; cited from earlier work
GC3 /Cl Cells [4] = test: Potentiation of cytotoxicity of vincristine and vinblastine; assay type: cell-based; conditions: Homo sapiens, 168 h
Protocol: (§5) Tumor cells were treated with graded concentrations of VCR and VLB in the absence or presence of nontoxic concentrations of the products of Examples 1, 3, 4 and 18. The plates were then transferred to a CO2 incubator and, after further incubation for 7 days at 37° C., colonies were enumerated as described in Example 23.
(§6) ^a IC50 concentration of modulator

KB Ch^R -8-5 Cells [5] = test: as above; assay type: cell-based; conditions: Homo sapiens, 168 h
Protocol: as §5, §6

KBCh®-8-5 = test: Cross-resistance of cell line to VCR and VLB; assay type: cell-based, human; conditions: KBCh®-8-5, colchicine selected MDR variant
Protocol: (§7) A cloned line of human colon adenocarcinoma, GC3 /Cl^31, which is intrinsically resistant to VCR (≈4-fold relative to KB-3-1), was routinely grown at 37° C. in antibiotic-free RPMI-1640 medium supplemented with 2 mM glutamine and 10% FBS (Hyclone Laboratories, Inc., Logan, Utah) in a humidified atmosphere of 5% CO2 and 95% air. Human epidermoid carcinoma KB-3-1 cells and a colchicine selected MDR variant, KBCh®-8-5, were obtained which was cross-resistant to VCR (45-fold) and VLB (6.3-fold); it was grown in monolayer culture at 37° C. in DMEM with 10% FBS and L-glutamine in a humidified atmosphere of 10% CO2 in air. The resistance of the KBCh®-8-5 cells was maintained by culturing them with colchicine (10 ng/ml).

GC3 /CL [6] = test: Resistance of cell line to VCR; assay type: cell-based, human; conditions: relative to KB-3-1
Protocol: as §7

[7] = [3H] VCR 70.4 nm, read-out: Vinca Accumulation, VCR
[8] = [3H] VLB 49.5 nm, read-out: Vinca Accumulation, VLB

SMILES | activity at 100 µM (KB Ch^R -8-5 Cells [1]; [7]) [%] | activity at 100 µM (GC3 /Cl Cells [2]; [7]) [%] | IC50 (KBCh^R -8-5) [µM] | also measured
OCCN1CCN(CCCCN2c3ccccc3Oc3ccccc32)CC1 [Compound 13, 10-(4'-β-hydroxyethylpiperazinobutyl) phenoxazine] | 91 | 543 | < 10 | activity at 100 µM (KB Ch^R -8-5 Cells [1]; [8]): 188%; IC50 (GC3 /CL [3]): 7 µM
c1ccc2c(c1)Oc1ccccc1N2CCCCN1CCCCC1 [Compound 12, 10-(4'-N-piperidinobutyl)phenoxazine] | 196 | 416 | < 10 | IC50 (GC3 /CL [3]): 7 µM
c1ccc2c(c1)Nc1ccccc1O2 [phenoxazine] |  |  |  | potentiation of uptake of VCR and VLB (MDR GC3 /Cl cells): to a greater extent than verapamil; potentiation of uptake of VCR and VLB (KBCh®-8-5 cells): to a greater extent than verapamil
c1ccc2c(c1)Oc1ccccc1N2CCCCN1CCOCC1 [Compound 11, 10-(4'-N-morpholinobutyl)phenoxazine] | 702 | 477 | 18 | IC50 (GC3 /CL [3]): 27 µM
O=C(CN1CCCCC1)N1c2ccccc2Oc2ccccc21 [Compound 18, 10-(N-piperidinoacetyl)phenoxazine] | 326 | 177 | 73 | activity at 100 µM (GC3 /Cl Cells [2]; [8]): 446%
CN1CCN(CCCN2c3ccccc3Sc3ccc(C(F)(F)F)cc32)CC1 [trifluoperazine] |  |  |  | modifying MDR (MDR): active in modifying MDR
O=C(CN1CCN(CCO)CC1)N1c2ccccc2Oc2ccccc21 [Compound 19, 10-(β-hydroxyethylpiperazinoacetyl)phenoxazine] | 280 | 157 |  | activity at 100 µM (KB Ch^R -8-5 Cells [1]; [8]): 776%; activity at 100 µM (GC3 /Cl Cells [2]; [8]): 426%
OCCN(CCO)CCCN1c2ccccc2Oc2ccccc21 [Compound 3, 10-(3'-bishydroxyethylaminopropyl)phenoxazine] | 473 | 464 | 38 | IC50 (GC3 /CL [3]): 37 µM
c1ccc2c(c1)Oc1ccccc1N2CCCCN1CCCC1 [Compound 14, 10-(4'-N-pyrrolidinobutyl)phenoxazine] | 198 | 412 | < 10 | activity at 100 µM (KB Ch^R -8-5 Cells [1]; [8]): 477%; IC50 (GC3 /CL [3]): 8 µM
c1ccc2c(c1)Oc1ccccc1N2CCCN1CCCC1 [Compound 7, 10-(3'-N-pyrrolidinopropyl)phenoxazine] | 408 | 250 |  | 
c1ccc2c(c1)Oc1ccccc1N2CCCN1CCOCC1 [Compound 4, 10-(3'-N-morpholinopropyl)phenoxazine] | 742 | 634 | 73 | IC50 (GC3 /CL [3]): 40 µM
c1ccc2c(c1)Oc1ccccc1N2CCCN1CCCCC1 [Compound 5, 10-(3'-N-piperidinopropyl)phenoxazine] | 435 | 282 |  | 
O=C(N1c2ccccc2Oc2ccccc21)C(F)(F)F [Compound 21, 10-(trifluoroacetyl)phenoxazine] | 415 | 230 |  | activity at 100 µM (KB Ch^R -8-5 Cells [1]; [8]): 827%; activity at 100 µM (GC3 /Cl Cells [2]; [8]): 222%
CCN(CC)CC(=O)N1c2ccccc2Oc2ccccc21 [Compound 16, 10-(diethylaminoacetyl)phenoxazine] | 184 | 160 |  | activity at 100 µM (KB Ch^R -8-5 Cells [1]; [8]): 953%; activity at 100 µM (GC3 /Cl Cells [2]; [8]): 305%
OCCN(CCO)CCCCN1c2ccccc2Oc2ccccc21 [Compound 10, 10-(4'-bishydroxyethylaminobutyl) phenoxazine] | 92 | 382 | < 10 | IC50 (GC3 /CL [3]): 16 µM
CCN(CC)CCCCN1c2ccccc2Oc2ccccc21 [Compound 9, 10-(4'-diethylaminobutyl)phenoxazine] | 211 | 325 |  | 
O=C(CN1CCCC1)N1c2ccccc2Oc2ccccc21 [Compound 20, 10-(N-pyrrolidinoacetyl)phenoxazine] | 188 | 151 |  | activity at 100 µM (KB Ch^R -8-5 Cells [1]; [8]): 776%; activity at 100 µM (GC3 /Cl Cells [2]; [8]): 296%
COc1ccc(CCN(C)CCCC(C#N)(c2ccc(OC)c(OC)c2)C(C)C)cc1OC (stereo not shown) [Verapamil] |  |  |  | modifying MDR (MDR): active in modifying MDR
CC[C@]1(O)C[C@@H]2CN(CCc3c([nH]c4ccccc34)[C@@](C(=O)OC)(c3cc4c(cc3OC)N(C)[C@H]3[C@@](O)(C(=O)OC)[C@H](OC(C)=O)[C@]5(CC)C=CCN6CC[C@]43[C@@H]65)C2)C1 [VLB] |  |  |  | IC50 (GC3 /Cl Cells [4]; read-out: IC50 of VLB alone): 0.0074 µM; IC50 (KB Ch^R -8-5 Cells [5]; read-out: IC50 of VLB alone): 0.02 µM; cross-resistance to VLB (KBCh®-8-5): 6.3 fold
ClCCCN1c2ccccc2Oc2ccccc21 [Compound 1, 10-(3'-chloropropyl)-phenoxazine] | 454 | 846 | 57 | IC50 (GC3 /CL [3]): 83 µM
CC[C@]1(O)C[C@H]2CN(CCc3c([nH]c4ccccc34)[C@@](C(=O)OC)(c3cc4c(cc3OC)N(C=O)[C@H]3[C@@](O)(C(=O)OC)[C@H](OC(C)=O)[C@]5(CC)C=CCN6CC[C@]43[C@@H]65)C2)C1 [VCR] |  |  |  | IC50 (GC3 /Cl Cells [4]; read-out: IC50 of VCR alone): 0.027 µM; IC50 (KB Ch^R -8-5 Cells [5]; read-out: IC50 of VCR alone): 0.032 µM; resistance to VCR (GC3 /CL [6]): ≈ 4 fold; cross-resistance to VCR (KBCh®-8-5): 45 fold
O=C(CN1CCOCC1)N1c2ccccc2Oc2ccccc21 [Compound 17, 10-(N-morpholinoacetyl)phenoxazine] | 290 | 213 |  | activity at 100 µM (KB Ch^R -8-5 Cells [1]; [8]): 674%; activity at 100 µM (GC3 /Cl Cells [2]; [8]): 298%
OCCN1CCN(CCCN2c3ccccc3Oc3ccccc32)CC1 [Compound 6, 10-(3'-β-hydroxyethylpiperazinopropyl) phenoxazine] | 343 | 368 |  | 
COC(=O)[C@H]1[C@H]2C[C@@H]3c4[nH]c5cc(OC)ccc5c4CCN3C[C@H]2C[C@@H](OC(=O)c2cc(OC)c(OC)c(OC)c2)[C@@H]1OC [reserpine] |  |  |  | modifying MDR (MDR): active in modifying MDR
ClCCCCN1c2ccccc2Oc2ccccc21 [Compound 8, 10-(4'-chlorobutyl)phenoxazine] | 398 | 317 |  | 
O=C(CCl)N1c2ccccc2Oc2ccccc21 [Compound 15, 10-(chloroacetyl)phenoxazine] | 138 | 171 |  | activity at 100 µM (KB Ch^R -8-5 Cells [1]; [8]): 236%; activity at 100 µM (GC3 /Cl Cells [2]; [8]): 284%
C=C[C@H]1C[N@@]2CC[C@H]1C[C@@H]2[C@@H](O)c1ccnc2ccc(OC)cc12 [quinidine] |  |  |  | modifying MDR (MDR): active in modifying MDR
CCN(CC)CCCN1c2ccccc2Oc2ccccc21 [Compound 2, 10-(3'-diethylaminopropyl)phenoxazine] | 546 | 439 | 15 | 
